Values quoted from earlier work, collected in patent publication US9908851B2, “2-piperidinyl substituted N,3-dihydroxybutanamides” (Duke University, priority 2013, dated 2018).
≈ marks a conversion by molar mass, not a printed value.

System: N. gonorrhoeae 35/02 (drug-resistant strain)
Details: strain 35/02; resistance profile of the strain

Molecule	MIC
CO/N=C(\C(=O)N[C@@H]1C(=O)N2C(C(=O)O)=C(CSc3nc(=O)c(=O)[nH]n3C)CS[C@H]12)c1csc(N)n1 [ceftriaxone]	0.12 µg/mL (≈ 0.216 µM)
penicillin	6 µg/mL
